{"source": "patent US10646527B2", "about": "“Method of using a Mangifera indica composition in the treatment of obesity” (Vidya Herbs, Inc., priority 2015, dated 2020)", "key": {"[1]": {"assay": "Hydrogen peroxide (H2O2) scavenging activity", "type": "biochemical", "description": "Hydrogen peroxide scavenging activity of the composition was estimated in this study where initially, composition solutions were prepared at different concentrations in distilled water and the resultant solutions were mixed in 0.6 ml of 40 mM H2O2 solution prepared in phosphate buffer (0.1 M pH 7.4) and incubated for 10 min. The absorbance was measured at 230 nm against a blank solution containing H2O2. Similar procedure was repeated for the composition, mangiferin, and quercetin. The amount of hydrogen peroxide radical inhibited was calculated using the following equation. The result is expressed as % H2O2 radical scavenging activity.\n[formula] [formula] where: Abs control—Absorbance of H2O2 radical Abs sample—Absorbance of sample extract/standard (the composition, mangiferin and quercetin) Result: […]"}, "[2]": {"assay": "Lipid peroxidation inhibitory assay (TBARS, egg yolk homogenate)", "type": "biochemical", "details": "Sample Concentration: 100-500 μg/ml", "description": "A modified thiobarbituric acid reactive species (TBARS) assay (Ohkowa et al., 1979) is used to measure lipid peroxidation formed using egg yolk homogenate as lipid rich media (Ruberto et al., 2000).\nTake 0.5 ml of egg homogenate (10% in distilled water) and 0.1 ml of test sample in the concentration range 100-500 μg/ml in a test tube and volume made up to 1 ml by adding distilled water. Finally add 0.05 ml ferrous sulphate (0.07M) to the above mixture and incubated for 30 min to induce the lipid peroxidation. Thereafter added 1.5 ml of 20% acetic acid (pH 3.5) and 1.5 ml of (0.8% in 1.1% SDS) TBA and 0.05 ml (20%) TCA then heated in boiling water bath for 60 min. After cooling 5 ml of butanol was added to all the test tubes and centrifuged at 3000 rpm for 10 min. Measured the absorbance of the organic upper layer at 532 nm. The percentage inhibition of lipid peroxidation was calculated from the formula,\n[formula] where: Ab (cont)—is the absorbance of the control Ab (test sample)—is the absorbance of the test sample/standard"}, "[3]": {"system": "high fat diet fed male Wistar rats", "assay": "Anti-obesity activity in high fat diet fed rats", "type": "in vivo, rat", "details": "Group III, Orlistat 30 mg/kg", "description": "Objective: The objective was to investigate the effect of the composition against high fat diet fed rats.\nAnimals: male Wistar rats (160 to 200 g); no. of animals: 36; housing: 3/cage, 12 hrs light/dark cycle; temperature: 25±2° c.\nModel & composition of the diet: high fat diet in rats: 25% lard, 5% soybean oil; 5% starch; 65% normal commercial available rat feed\nGroups: male Wistar rats were divided into six groups with six animals in each group."}}, "note": "Marks after values point to notes of the source that are not given here.", "data": [{"smiles": "O=c1c(O)c(-c2ccc(O)c(O)c2)oc2cc(O)cc(O)c12", "note": "[Quercetin(Standard), Quercetin]", "values": [{"measurement": "% H2O2 radical scavenging activity", "setting": "[1]; 10 μg/ml", "value": 5.6, "unit": "%"}, {"measurement": "% H2O2 radical scavenging activity", "setting": "[1]; 20 μg/ml", "value": 14.55, "unit": "%"}, {"measurement": "% H2O2 radical scavenging activity", "setting": "[1]; 30 μg/ml", "value": 18.86, "unit": "%"}, {"measurement": "% H2O2 radical scavenging activity", "setting": "[1]; 40 μg/ml", "value": 33.96, "unit": "%"}, {"measurement": "Lipid peroxidation % inhibition", "setting": "[2]", "value": 53.44, "unit": "%"}]}, {"smiles": "CCCCCCCCCCC[C@@H](C[C@@H]1OC(=O)[C@H]1CCCCCC)OC(=O)[C@H](CC(C)C)NC=O", "note": "[Orlistat]", "values": [{"measurement": "Atherogenic Index", "setting": "[3]", "value": "1.39 ± 0.15^***b"}, {"measurement": "BAT (brown adipose tissue)", "setting": "[3]", "value": "0.28 ± 0.01^nsb"}, {"measurement": "Difference in body weight gain", "setting": "[3]", "value": "79.82 ± 2.58 ^b"}, {"measurement": "Epididymal fat pad Left", "setting": "[3]", "value": "0.52 ± 0.03^nsb"}, {"measurement": "Epididymal fat pad Right", "setting": "[3]", "value": "0.55 ± 0.02^nsb"}, {"measurement": "Liver organ weight", "setting": "[3]", "value": "2.8 ± 0.08***^b"}]}]}
